The values that follow come from publication PMC10046020, “In Silico Screening and Optimization of Cell-Penetrating Peptides Using Deep Learning Methods” (Biomolecules, 2023).

Peptide text beside a SMILES is read from it. * marks the point of attachment. FITC = O=C1OC2(c3ccc(O)cc3Oc3cc(O)ccc32)c2ccc(NC(=S)*)cc21; Ahx = NCCCCCC(=O)O

One data set has as its system MCF-7 cells.
Settings: not given
For `CSCC[C@H](NC(=O)CCCCCNC(=S)Nc1ccc2c(c1)C(=O)OC21c2ccc(O)cc2Oc2cc(O)ccc21)C(=O)N[C@@H](CCCCN)C(=O)N1CCC[C@H]1C(=O)NCC(=O)N[C@@H](CC(C)C)C(=O)N[C@@H](C)C(=O)N[C@@H](CC(C)C)C(=O)N[C@@H](CC(C)C)C(=O)N[C@@H](CC(C)C)C(=O)N[C@@H](CC(C)C)C(=O)N[C@@H](C)C(=O)N[C@@H](C)C(=O)N[C@@H](CCCCN)C(=O)N[C@@H](CCCCN)C(=O)N[C@@H](C)C(=O)N[C@@H](CCCNC(=N)N)C(=O)N[C@@H](C)C(N)=O` [Peptide 10] ({FITC-Ahx}-MKPGLALLLLAAKKARA-NH2), the “cell permeability compared to the WT peptide” value is “lower cell permeability than the WT CPP”.
On to `CSCC[C@H](NC(=O)CCCCCNC(=S)Nc1ccc2c(c1)C(=O)OC21c2ccc(O)cc2Oc2cc(O)ccc21)C(=O)N[C@@H](CC(C)C)C(=O)N[C@@H](CCCCN)C(=O)N[C@@H](Cc1c[nH]cn1)C(=O)N[C@@H](CC(C)C)C(=O)N[C@@H](C)C(=O)N[C@@H](CC(C)C)C(=O)N[C@@H](CC(C)C)C(=O)N[C@@H](CC(C)C)C(=O)N[C@@H](CC(C)C)C(=O)N[C@@H](C)C(=O)N[C@@H](C)C(=O)N[C@@H](Cc1c[nH]c2ccccc12)C(=O)N[C@@H](CCCCN)C(=O)N[C@@H](C)C(=O)N[C@@H](CCCNC(=N)N)C(=O)N[C@@H](C)C(N)=O` [Peptide 7] ({FITC-Ahx}-MLKHLALLLLAAWKARA-NH2), for which the Permeability is 59.07%.
The same measure, in the same setting: then `CSCC[C@H](NC(=O)CCCCCNC(=S)Nc1ccc2c(c1)C(=O)OC21c2ccc(O)cc2Oc2cc(O)ccc21)C(=O)N[C@@H](CC(C)C)C(=O)N1CCC[C@H]1C(=O)NCC(=O)N[C@@H](CC(C)C)C(=O)N[C@@H](C)C(=O)N[C@@H](CC(C)C)C(=O)N[C@@H](CC(C)C)C(=O)N[C@@H](CC(C)C)C(=O)N[C@@H](CC(C)C)C(=O)N[C@@H](C)C(=O)N[C@@H](C)C(=O)N[C@@H](Cc1c[nH]c2ccccc12)C(=O)N[C@H](C(=O)N[C@@H](C)C(=O)N[C@@H](CCCNC(=N)N)C(=O)N[C@@H](C)C(N)=O)[C@@H](C)O` [Peptide 1] ({FITC-Ahx}-MLPGLALLLLAAWTARA-NH2), with 10.40%.
With `CSCC[C@H](NC(=O)CCCCCNC(=S)Nc1ccc2c(c1)C(=O)OC21c2ccc(O)cc2Oc2cc(O)ccc21)C(=O)N[C@@H](CC(C)C)C(=O)N1CCC[C@H]1C(=O)NCC(=O)N[C@@H](CC(C)C)C(=O)N[C@@H](C)C(=O)N[C@@H](CC(C)C)C(=O)N[C@@H](CC(C)C)C(=O)N[C@@H](CCCCN)C(=O)N[C@@H](CC(C)C)C(=O)N[C@@H](C)C(=O)N[C@@H](C)C(=O)N[C@@H](Cc1c[nH]c2ccccc12)C(=O)N[C@H](C(=O)N[C@@H](C)C(=O)N[C@@H](CCCNC(=N)N)C(=O)N[C@@H](C)C(N)=O)[C@@H](C)O` [Peptide 2] ({FITC-Ahx}-MLPGLALLKLAAWTARA-NH2), the “cell permeability compared to the WT peptide” value is “lower cell permeability than the WT CPP”.

Test system in the next data set: not given
The conditions noted are these: Spreadsheet S1: 150 CPP and 150 non-CPP peptides collected from CellPPD, MLCPP, CPPsite 2.0, Lifetein and other publications; cited from earlier work. The text has this:
Supplement biomolecules-13-00522-s001.zip/biomolecules-2162660_Supplementary Spreadsheets S1 Test Set.csv, table | column: class || Supplement biomolecules-13-00522-s001.zip/biomolecules-2162660_Supplementary Spreadsheets S2 Train Set.csv, table | column: class
LLKTTELLKTTELLKTTS: the “class (CPP / Non-CPP), Test Set” value is “Non-CPP”.
Take GRKKRRERRRPPERKC: the “class (CPP / Non-CPP), Test Set” value is recorded as “CPP”.
For the molecule GIVEQCCDTPCSLYDPENYCN, the “class (CPP / Non-CPP), Test Set” value is on record as “Non-CPP”.
As to LALALALALALALAKLAKLAKLAKLAKIKKIKKKIK, the “class (CPP / Non-CPP), Test Set” value is “CPP”.
For RPKRPTTLNLFPQVPRSQDT, the “class (CPP / Non-CPP), Test Set” value is “CPP”.
For the molecule KKLSECLKRIGDELDS, the “class (CPP / Non-CPP), Test Set” value is recorded as “Non-CPP”.
For GWTLNSAGYLLEPHAI, the “class (CPP / Non-CPP), Test Set” value is recorded as “Non-CPP”.
Take FDPYALSEHDEERPQNVQSKSRTAELQAEIDDTVGI: the “class (CPP / Non-CPP), Test Set” value is on record as “Non-CPP”.
Turning to LMLRTVGYKFHCSLPVNAVHCSLK, the “class (CPP / Non-CPP), Test Set” value is listed as “Non-CPP”.
For RHHLRHLRRHLRHLLRHLRHHLRHLRRHLRHLL, the “class (CPP / Non-CPP), Test Set” value is reported as “CPP”.
As for MDMVAIDDQDYIMCHF, the “class (CPP / Non-CPP), Test Set” value is “Non-CPP”.
ACRGRGRRCGSGRRSCG: the “class (CPP / Non-CPP), Test Set” value is on record as “CPP”.
For the molecule WEAVVAYGRKKRRQRRR, the “class (CPP / Non-CPP), Test Set” value is “CPP”.
As to PLGPVVHKCCPGFGGLQWLPLLWNWYQNMWGN, the “class (CPP / Non-CPP), Test Set” value is given as “Non-CPP”.
For FTFGGGYVYFEEYAY, the “class (CPP / Non-CPP), Test Set” value was “Non-CPP”.
Regarding LLKTTALLKTTALHKTTA, the “class (CPP / Non-CPP), Test Set” value is reported as “Non-CPP”.
For the molecule PDEIGGKFPTAYVQDYLINPE, the “class (CPP / Non-CPP), Test Set” value was “Non-CPP”.
As to KRKKKGKGLGKKRDPCLRKYK, the “class (CPP / Non-CPP), Test Set” value was “CPP”.
As for TRTSRGWHTTDLKYN, the “class (CPP / Non-CPP), Test Set” value was “Non-CPP”.
LILIGRRRRRRRRGC: the “class (CPP / Non-CPP), Test Set” value was “CPP”.
Consider FKCRRWQWRMKKLGAPSITCVRRAF, for which the “class (CPP / Non-CPP), Test Set” value is recorded as “CPP”.
Regarding QSGAKPGHCEWQSTHLKNCEKVNDIRQPPHHQRS, the “class (CPP / Non-CPP), Test Set” value is “Non-CPP”.
KKLSLCLKRIGDELDS: the “class (CPP / Non-CPP), Test Set” value was “Non-CPP”.
As to GAPRLVLLFSGKRKSGKDFVTEA, the “class (CPP / Non-CPP), Test Set” value is listed as “Non-CPP”.
Regarding KLDFLGEGQFATVYKARDKNT, the “class (CPP / Non-CPP), Test Set” value is recorded as “Non-CPP”.
Consider ILRRRIRKQAHFHSK, for which the “class (CPP / Non-CPP), Test Set” value is “Non-CPP”.
Consider FLPLLAGVVANFLPQIICKIARKC, for which the “class (CPP / Non-CPP), Test Set” value was “Non-CPP”.
As for KGRKKRRQRRRPPQ, the “class (CPP / Non-CPP), Test Set” value is recorded as “CPP”.
With KLAAKLALKALKAA, the “class (CPP / Non-CPP), Test Set” value is “Non-CPP”.
For GCCSHPACNVNNPHICG, the “class (CPP / Non-CPP), Test Set” value was “Non-CPP”.
Consider GWTLHSAGYLLGPHAI, for which the “class (CPP / Non-CPP), Test Set” value is on record as “Non-CPP”.
With MAPTKRKGSCPGAAPNKKP, the “class (CPP / Non-CPP), Test Set” value is “CPP”.
For KETWWETWWTEWSQPKKRKV, the “class (CPP / Non-CPP), Test Set” value is “CPP”.
Take SDPSVPLRPEEDELIDQ: the “class (CPP / Non-CPP), Test Set” value was “Non-CPP”.
On to ARRRCSDRFRNCPADEALCGRRR, for which the “class (CPP / Non-CPP), Test Set” value was “CPP”.
On to KLALKLACKALKAA, for which the “class (CPP / Non-CPP), Test Set” value is recorded as “Non-CPP”.
Consider DVVRVWFCNRRQKGKR, for which the “class (CPP / Non-CPP), Test Set” value is given as “CPP”.
Regarding LLGKGNLKALAALAKKIL, the “class (CPP / Non-CPP), Test Set” value is listed as “Non-CPP”.
Turning to GMNCSREYAHCTSAYV, the “class (CPP / Non-CPP), Test Set” value is “Non-CPP”.
Take CPLDQFECGGDEPG: the “class (CPP / Non-CPP), Test Set” value was “Non-CPP”.
Consider LRHHLRHLLRHLRHLLRHLRHHLRHLLRH, for which the “class (CPP / Non-CPP), Test Set” value was “CPP”.
Turning to NAGGWFSSWFFSNTANEDQDDMLPSTSAAAGETNYARN, the “class (CPP / Non-CPP), Test Set” value is “Non-CPP”.

The same data set, now with this note: Spreadsheet S2: peptides collected from CellPPD, MLCPP, CPPsite 2.0, Lifetein and other publications; cited from earlier work.
For the molecule RRRRRRRGGIYLATALAKWALKQGF, the “class (CPP / Non-CPP), Train Set” value is reported as “CPP”.

Staying with this data set, now noted: cited from earlier work.
In the case of YGRGGRRGRRR, the “class (CPP / Non-CPP), Test Set” value is “CPP”.
For the molecule VDFEEAYLAVS, the “class (CPP / Non-CPP), Test Set” value is on record as “Non-CPP”.
Regarding HGWEIHGLLHRA, the “class (CPP / Non-CPP), Test Set” value was “CPP”.
YARVRRRGPRRR: the “class (CPP / Non-CPP), Test Set” value was “CPP”.
As to RRRRRRRRGC, the “class (CPP / Non-CPP), Test Set” value is recorded as “CPP”.
With SNGHACRPW, the “class (CPP / Non-CPP), Test Set” value was “Non-CPP”.
HATKSQNINF: the “class (CPP / Non-CPP), Test Set” value is “CPP”.
Consider RRRRRRRRK, for which the “class (CPP / Non-CPP), Test Set” value was “CPP”.
RRRRRRWWW: the “class (CPP / Non-CPP), Test Set” value is recorded as “CPP”.
In the case of CRGDKGDPC, the “class (CPP / Non-CPP), Test Set” value was “CPP”.
On to NYRWRCKN, for which the “class (CPP / Non-CPP), Test Set” value was “CPP”.
As to RRRRRRRRC, the “class (CPP / Non-CPP), Test Set” value is recorded as “CPP”.
In the case of VIVTERVLLLVAP, the “class (CPP / Non-CPP), Test Set” value is reported as “Non-CPP”.
Regarding LIKRKRLI, the “class (CPP / Non-CPP), Test Set” value is listed as “Non-CPP”.
With MVMEMRNF, the “class (CPP / Non-CPP), Test Set” value was “Non-CPP”.
